Measurements reported in article PMC12446003, “Pharmacological characterization of linaprazan glurate (X842), a novel potassium-competitive acid blocker, in vitro and in vivo” (Frontiers in Pharmacology, 2025).
Values joined by “and” are separate entries in the source; they are usually repeats but may differ in a detail not shown here. Equal values may be shown once. Read-outs that look alike come from different tables or passages of the source.

Assays:
Gastric H+/K+-ATPase = target: T1, Gastric H+/K+-ATPase (Oryctolagus cuniculus, UniProt P27112); experiment: Inhibition of H+/K+-ATPase activity (Malachite Green Pi assay); format: biochemical, rabbit
T1 construct: Gastric H^+/K^+-ATPase was prepared from rabbit glands; from tissue; host or cells: rabbit gastric glands
Procedure: The H^+/K^+-ATPase inhibition reaction was performed in buffer (50 mM Tris-HCl, 5 mM magnesium chloride, 10 μM valinomycin, pH 6.5) with or without 20 mM potassium chloride (KCl), and inorganic phosphate (Pi) was detected using Malachite Green solution, made from 0.1% malachite green, 1.5% hexaammonium molybdate, and 0.2% Tween-20 in a ratio of 100:25:2 ([Skou, 1982]; [Feng et al., 2011]). Gastric H^+/K^+-ATPase was prepared from rabbit glands, as described previously ([Kondo et al., 2012]; [Arikawa et al., 2012]). The reaction occurred in a 96-well plate with a total volume of 50 µL/well, including buffer, enzyme, ATP, and drug. After 30 min at 37 °C for enzyme stability, ATP was added at 0.2 mM to start the reaction, which was optimized from the titration experiments. The reaction lasted 20 min at 37 °C, followed by the addition of Malachite Green for the colorimetric assay. The enzyme control wells contained the full enzyme system, while the buffer control wells contained only buffer to correct for background values. Absorbance was measured at 620 nm using a plate reader (SpectraMax M5). The inhibition rate was calculated using the following formula, accounting for the enzyme activity in the presence and absence of K^+: Inhibition Rate %=ODwith K+and enzyme,without drug−ODwith K+and enzyme,with drug /ODwith K+and enzyme,without drug−ODwithout K+and enzyme,without drug×100 where “OD with K^+ and enzyme, without drug” is the optical density measured at 620 nm in the presence of K^+ and enzyme, without the tested drug (enzyme control wells); “OD with K^+ and enzyme, with drug” is the optical density measured at 620 nm in the presence of K^+ and enzyme, with the tested drug; and “OD without K^+ and enzyme, without drug” is the optical density measured at 620 nm in the absence of K^+ and enzyme, without the tested drug (buffer control wells).

[1] = system: gastric acid secretion in pylorus-ligated rats; experiment: Gastric acid inhibition in pylorus-ligated rats; format: in vivo
Procedure: The rats were fasted overnight with ad libitum access to water. Drugs and vehicle were administered orally to rats in a blinded manner. The pylorus was ligated under ether anesthesia within 1 h after drug and vehicle administration, and the abdomen was closed by suturing. At 4 h after pyloric ligation, the rats were sacrificed by CO2 asphyxiation, and the stomach was removed ([Hori et al., 2010]). The gastric contents were collected and centrifuged at 3,000 rpm for 10 min. The volume of each sample was measured, the gastric acid concentration was determined by acid-base titration, and the total acidity was calculated.

[2] = system: histamine-stimulated acid secretion in pylorus-ligated rats; experiment: Histamine-stimulated acid secretion in pylorus-ligated rat models; format: in vivo, Sprague-Dawley rats; conditions: histamine 30 mg/kg s.c., pylorus-ligated male rats
Procedure: 1.1 Histamine-stimulated acid secretion in pylorus-ligated rat models
The rats were fasted overnight with ad libitum access to water. Vehicle or X842 (2 mg/kg, 8 mg/kg) was administered orally to male Sprague-Dawley rats using a feeding catheter ina blinded manner. One hour after dosing, the pylorus was ligated under isoflurane anesthesia, and histamine (30 mg/kg/10 mL) was immediately administered subcutaneously. At 3 hours after histamine administration, the rats were sacrificed by carbon dioxide asphyxiation. The gastric contents were collected from the removed stomach. The gastric contents were collected and centrifuged at 3000 rpm for 10 minutes. The volume of each sample was measured, the gastric acid concentration was determined by acid-base titration, and the total acidity was […]
2.Supplementary Figures and Tables
2.1 Supplementary Figures

gastric pH = experiment: Phase I gastric pH holding time ratio; format: in vivo, humans; conditions: unpublished Phase I data
rats = experiment: Toxicity in rats (data to be published); format: in vivo
dogs = experiment: Toxicity in dogs (data to be published); format: in vivo
acid secretion = system: acid secretion; design: method as in Gedda et al., 2007; Scarpignato and Hunt, 2024; conditions: rats; ref Gedda et al., 2007; Scarpignato and Hunt, 2024; cited from earlier work
[3] = in the presence of K+ (20 mM KCl), pH 6.5, read-out: IC50, H+/K+-ATPase inhibition
[4] = in the presence of potassium ions, rabbit gastric glands, read-out: IC50 (Figure 7A)

T1 sequence (P27112 whole entry): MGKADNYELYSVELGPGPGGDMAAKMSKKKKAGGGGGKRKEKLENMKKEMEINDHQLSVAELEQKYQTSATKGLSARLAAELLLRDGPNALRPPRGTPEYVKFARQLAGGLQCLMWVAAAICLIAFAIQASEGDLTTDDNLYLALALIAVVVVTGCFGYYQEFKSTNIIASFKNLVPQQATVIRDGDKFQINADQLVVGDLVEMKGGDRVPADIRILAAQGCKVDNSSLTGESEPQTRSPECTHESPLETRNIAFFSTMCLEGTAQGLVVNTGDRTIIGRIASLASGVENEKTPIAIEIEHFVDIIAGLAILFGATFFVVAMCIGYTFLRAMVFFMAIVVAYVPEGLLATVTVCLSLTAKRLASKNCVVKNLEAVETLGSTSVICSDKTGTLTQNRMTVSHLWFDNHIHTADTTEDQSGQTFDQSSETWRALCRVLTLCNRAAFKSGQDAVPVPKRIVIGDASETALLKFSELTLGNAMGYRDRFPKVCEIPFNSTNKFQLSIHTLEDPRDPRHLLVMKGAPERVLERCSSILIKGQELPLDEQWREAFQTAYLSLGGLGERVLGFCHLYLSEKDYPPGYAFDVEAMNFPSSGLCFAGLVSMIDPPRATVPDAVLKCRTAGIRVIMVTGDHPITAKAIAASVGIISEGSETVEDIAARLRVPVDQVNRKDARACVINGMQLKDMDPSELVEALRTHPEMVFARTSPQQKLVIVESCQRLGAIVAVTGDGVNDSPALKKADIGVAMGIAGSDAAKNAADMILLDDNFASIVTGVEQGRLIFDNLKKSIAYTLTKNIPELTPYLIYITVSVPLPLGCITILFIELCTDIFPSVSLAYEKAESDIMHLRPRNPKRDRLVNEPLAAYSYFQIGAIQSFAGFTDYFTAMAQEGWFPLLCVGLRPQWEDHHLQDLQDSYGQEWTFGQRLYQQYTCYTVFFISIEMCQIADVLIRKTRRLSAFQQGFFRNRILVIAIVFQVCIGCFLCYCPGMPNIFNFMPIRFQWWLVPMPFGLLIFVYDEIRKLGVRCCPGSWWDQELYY
T1 sequence (P18597 whole entry partner): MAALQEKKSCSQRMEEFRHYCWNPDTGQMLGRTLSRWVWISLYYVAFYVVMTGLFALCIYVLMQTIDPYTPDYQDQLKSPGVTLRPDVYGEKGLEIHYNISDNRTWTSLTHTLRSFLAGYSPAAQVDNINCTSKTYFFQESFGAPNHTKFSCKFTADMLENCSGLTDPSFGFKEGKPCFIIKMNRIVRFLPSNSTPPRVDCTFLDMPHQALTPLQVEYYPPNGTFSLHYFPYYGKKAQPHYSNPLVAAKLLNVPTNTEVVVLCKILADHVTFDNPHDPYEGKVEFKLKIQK

SMILES	Inhibitory effect on H+/K+-ATPase in the absence of K+ (Gastric H+/K+-ATPase)	Fold lower inhibitory activity against H+/K+-ATPase compared with linaprazan (Gastric H+/K+-ATPase; in the presence of K+) [fold]	IC50 (Gastric H+/K+-ATPase; [3])	IC50 (Gastric H+/K+-ATPase; [4]) [nM]	Duration of acid suppression ([1]; after a single oral dose)	Total acidity inhibitory rate (%) ([1]; oral 0.15 mg/kg, pylorus-ligated rats (not significant))	Total acidity inhibitory rate (%) ([1]; oral 0.5 mg/kg, pylorus-ligated rats)	Total acidity inhibitory rate (%) ([1]; oral 1.0 mg/kg, pylorus-ligated rats)	Total acidity inhibitory rate (%) ([1]; oral 1.5 mg/kg, pylorus-ligated rats)	Dose required for 50% inhibition (ID50) ([1]; oral, pylorus-ligated rats, total gastric acid) [mg/kg]	Total acidity inhibitory rate (%) ([2]; oral 2 mg/kg)	Total acidity inhibitory rate (%) ([2]; oral 8 mg/kg)	Gastric pH ≥4 holding time ratio (HTR) (gastric pH; oral doses ≥50 mg, throughout the 24-h period) [%]	Gastric pH ≥4 holding time ratio (HTR), nocturnal (gastric pH; oral doses ≥100 mg, nocturnal periods (12–24 h)) [%]	Adverse effects (acute, reproductive, teratogenic, carcinogenic toxicity) (rats)	Adverse effects (acute, reproductive, teratogenic, carcinogenic toxicity) (dogs)	Duration of inhibitory effect on acid secretion (acid secretion) [h]
Cc1cccc(C)c1CNc1cc(C(=O)NCCOC(=O)CCCC(=O)O)cn2c(C)c(C)nc12 [X842, linaprazan glurate]	No measurable inhibitory effect	~10	436 nM	436	at least 24 h	6	44	61	85	0.55	66	71	> 50	> 50	No significant adverse effects	No significant adverse effects	–
Cc1cccc(C)c1CNc1cc(C(=O)NCCO)cn2c(C)c(C)nc12 [linaprazan]	No measurable inhibitory effect	–	40 nM and 40.2 nM	40.2	–	–	–	–	–	–	–	–	–	–	–	–	24
